Results published in PMC2875304 (Experimental parasitology, 2010).
Like-named read-outs stand apart in the source and are kept apart here. No end group written: not given here.

Tests used:
[1] = tested on: Trypanosoma cruzi (M/HOM/AR/74/CA-I CL72); assay type: cell-based; settings: for IC50: 50% reduction in untreated-culture growth after 96 hours, triplicate wells, three independent trials
Rhodococcus rhodnii = assay: Minimal Inhibitory Concentration; assay type: cell-based; settings: single AMP treatment, result in words
E. coli DH5α = assay: Minimal Inhibitory Concentration; assay type: cell-based, Escherichia coli; settings: single AMP treatment, result in words

Substance: GIGKFLHSAKKFGKAFVGEIMNS [Magainin, Magainin II]
- IC50 ([1]; read-out: IC50B, peptide B alone): 10 µM

Substance: GNNRPVYIPQPRPPHPRL-NH2 [Apidaecin, Apidaecin 14]
- IC50 ([1]; read-out: IC50A, peptide A alone): 0.7 µM

Substance: KWKLFKKIEKVGQNIRDGIIKAGPAVAVVGQATQIAK-NH2 [Cecropin A]
- Growth inhibition of T. cruzi ([1]; single peptide, 96 hour treatment, 0 to 10 μM concentration range): ≤ 50%

Substance: QGYQGGYTRPFPRPPYGGGYHPVPVCTSCHRLSPLQARACCRQLGRCCDAKQTYG [Penaeidin, penaeidin]
- Effect on R. rhodnii in MIC assay (Rhodococcus rhodnii): did not have an effect
- Effect on E. coli in MIC assay (E. coli DH5α): did not have an effect
